From patent US20240374550A1, “GINGERENONE A PRODRUGS AND METHODS OF USE” (The U.S.A., as Represented by the Secretary, Department of …, priority 2022, published 2024)
“Also recorded” adds a separate entry of the source.

Assays:
[1] = system: senescent WI-38 fibroblasts; assay: MTT cell viability assay, IR-induced senescent WI-38 fibroblasts; assay type: cell-based, human; conditions: for senolytic activity (ability to selectively decrease cell viability of senescent cells): 72 h, ginger components at 100 μM, 6-shogaol 3.6 μM, 8-shogaol 33 μM, 6-gingerol 20 μM; for senescent cell viability: D+Q (dasatinib 250 nM + quercetin 10 μM), gingerenone A 20 μM, 6-shogaol 72.4 nM
Experimental: Cell culture and treatments: WI-38 human diploid fibroblasts (HDFs) were cultured in Dulbecco's modified Eagle's medium (DMEM) supplemented with 10% heat-inactivated fetal bovine serum (FBS), penicillin and streptomycin, and non-essential amino acids at 37° C. in a 5% CO2 incubator. HDFs were rendered senescent by exposure to 10 Gy of ionizing radiation (IR) and then cultured for an additional ten days. Proliferating and senescent WI-38 cells were seeded in triplicate overnight at 2×10^5 cells/well (in 6 well plates) to achieve ˜60% confluence by the next day. Cells were then treated with the extracts for times indicated. […]
MTT cell viability: The MTT assay (Bio Vision Milpitas, CA) was carried out following the manufacturer's protocol. Briefly, the media was gently removed from each well and 50 μl of serum-free medium+50 μl of Solution A were added to each well. The plates were incubated at 37° C. for MTT reduction into formazan for 3 h. Next, 150 μl Solution B was added to each well and the plate was covered with foil and shaken at 600 rpm for 15 min. The absorbance was measured at 590 nm using Enspire, Perkin Elmer Multimode plate reader. […]
WI-38 fibroblasts were rendered senescent by exposure to ionizing radiation (IR, 10 Gy) and cultured for an additional 10 days. […] Data represent the means and standard error from three biological replicates. The major components of ginger extract, namely 6-gingerol, 8-gingerol, 10-gingerol, 6-shogaol, 8-shogaol, gingerenone A, and zingerone, were screened for their ability to selectively decrease cell viability of senescent cells using the MTT assay (FIG. 10A).

[2] = system: proliferating WI-38 fibroblasts; assay: MTT cell viability assay, proliferating WI-38 fibroblasts; assay type: cell-based, human; conditions: 48 h; D+Q (dasatinib 250 nM + quercetin 10 μM), gingerenone A 20 μM, 6-shogaol 72.4 nM
Experimental: Cell culture and treatments: WI-38 human diploid fibroblasts (HDFs) were cultured in Dulbecco's modified Eagle's medium (DMEM) supplemented with 10% heat-inactivated fetal bovine serum (FBS), penicillin and streptomycin, and non-essential amino acids at 37° C. in a 5% CO2 incubator. HDFs were rendered senescent by exposure to 10 Gy of ionizing radiation (IR) and then cultured for an additional ten days. Proliferating and senescent WI-38 cells were seeded in triplicate overnight at 2×10^5 cells/well (in 6 well plates) to achieve ˜60% confluence by the next day. Cells were then treated with the extracts for times indicated.
In 24-well plates, cells were treated with multiple dilutions (1:200 and 1:500) of Harpagophytum procumbens (Devil's Claw) (herb to menstruum ratio, 1:3), Uncaria tomentosa (Cat's Claw) (herb to menstruum ratio, 1:3), Zingiber officinale Rosc. […]
MTT cell viability: The MTT assay (Bio Vision Milpitas, CA) was carried out following the manufacturer's protocol. […] The absorbance was measured at 590 nm using Enspire, Perkin Elmer Multimode plate reader.
Four plant extracts were screened for senolytic activity, including extracts from Harpagophytum procumbens (Devil's Claw), Uncaria tomentosa (Cat's Claw), Zingiber officinale Rosc. […] In FIG. 8B, the impact on ginger extract on proliferating and senescent cells on cell survival was assessed by the MTT cell viability assay. […]

[3] = system: SASP cytokines and chemokines secreted by senescent WI-38 fibroblasts; assay: Secreted protein analysis (ELISA, Luminex multiplex, V-PLEX) of SASP factors; assay type: cell-based, human; conditions: 24 h
Experimental: Secreted protein analysis-ELISA, Luminex Multiplex and V-PLEX: Media was collected at the earliest timepoint (24 h after treatments) to avoid cell death that could interfere with the assay. The media was centrifuged at 1000×g for 5 min to remove debris. The secretion of IL-6 was measured by the Quantikine ELISA Kit (R&D systems) and the expression of pro-inflammatory cytokines and chemokines [IL-6, TNFα, CCL2 (MCP-1), IL-8, IFNß] was also assessed by multiplex assays (customized Luminex plate, R&D) according to the manufacturer's instructions. The V-PLEX Plus Proinflammatory Panel 1 Human Kit and the Chemokine Panel 1 preparation and detection were carried out following the manufacturer's protocol (Mesoscale Diagnostics) using >80% confluency of proliferating or senescent cells on 24-well plates. Briefly, different concentrations of standards and samples were added to the plates, and they were incubated for 2 h on a microplate shaker. The plates were washed, and the corresponding detection antibody mixture was added to each well and incubated for 1 h with shaking. The plates were washed twice then Read buffer was added to each well. The plates were read on the MESO Quickplex SQ 120 (MSD, Rockville, MD) and protein concentrations were determined using MSD Discovery workbench 4.0. The effects of gingerenone A, 6-shogaol and D+Q on cytokines and chemokines that are known to be part of the senescence-associated secretory phenotype (SASP) were tested. WI-38 fibroblasts were rendered senescent by exposure to ionizing radiation (IR, 10 Gy) and cultured for an additional 10 days. Cells were then treated with gingerenone A (20 μM) and 6-shogaol (72.4 nM) and incubated for 24 h. CCL-2 (MCP-1) and IL-10 were measured using the Bio-plex (Multiplex); IL6 was measured using Quantikine IL-6 (R&D) (FIG. 12A). Data were normalized to cell number/total protein content. Data in graphs represent the means and standard error from three biological replicates. […] Ratios of cleaved pro-caspase 3 to total caspase 3, normalized to ACTB levels, are shown as relative to control proliferating cells. Cytokines (FIG. 13A) and chemokines (FIG. 13B) were measured using the V-plex panel (MSD) after treatment for 24 h with the indicated drugs. Relative secretion was measured as pg/ml vs control normalized on TE. Data in the graphs represent the means and standard error from three biological replicates.

[4] = system: p53, Bcl-XL, cleaved caspase-3 in proliferating and senescent WI-38 fibroblasts; assay: Western blot protein analysis (p53, Bcl-XL, cleaved caspase-3); assay type: cell-based, human; conditions: 48 h, senescent cells
Experimental: Protein analysis: Cells were lysed in RIPA lysis buffer (Pierce, ThermoFisher) containing protease and phosphatase inhibitors (Roche) and incubated on ice for 10 min. The lysates were then sonicated for 5 min and centrifuged for 10 min at 4° C. to remove the insoluble fraction. The remaining supernatant was the whole-cell lysate. Lysates were separated by SDS-polyacrylamide gel electrophoresis (SDS-PAGE) and transferred onto nitrocellulose membranes (Biorad). Incubations with primary antibodies recognizing p21, p53, Beta-Actin (ACTB) (Santa Cruz Biotechnology), as well as caspase-3 (Abcam) and Bcl-XL (Cell Signaling) were followed by incubations with the appropriate secondary antibodies conjugated with horseradish peroxidase (GE Healthcare). Signals were developed using Enhanced Chemiluminescence (ECL) and acquired by using the ChemiDoc MP Imaging System (BioRad).
The effects of gingerenone A, 6-shogaol and D+Q on cytokines and chemokines that are known to be part of the senescence-associated secretory phenotype (SASP) were tested. WI-38 fibroblasts were rendered senescent by exposure to ionizing radiation (IR, 10 Gy) and cultured for an additional 10 days. Cells were then treated with gingerenone A (20 μM) and 6-shogaol (72.4 nM) and incubated for 24 h. CCL-2 (MCP-1) and IL-10 were measured using the Bio-plex (Multiplex); IL6 was measured using Quantikine IL-6 (R&D) (FIG. 12A). Data were normalized to cell number/total protein content. Data in graphs represent the means and standard error from three biological replicates. […] Ratios of cleaved pro-caspase 3 to total caspase 3, normalized to ACTB levels, are shown as relative to control proliferating cells. Cytokines (FIG. 13A) and chemokines (FIG. 13B) were measured using the V-plex panel (MSD) after treatment for 24 h with the indicated drugs. Relative secretion was measured as pg/ml vs control normalized on TE. Data in the graphs represent the means and standard error from three biological replicates.
To determine whether gingerenone A and 6-shogaol might influence the apoptotic pathway, their effect on the levels of cleaved caspase-3 (pro-apoptotic marker), and Bcl-XL (anti-apoptotic protein) (FIG. 12B) was tested.

[5] = system: circulating cytokines/chemokines in serum; assay: Chronic administration, serum cytokines/chemokines; assay type: in vivo, C57BL/6JN mice; conditions: GinA 10 mg/kg/day, modGinA 27 mg/kg/day, 10 weeks
Experimental: (§1) A chronic administration of GinA (10 mg/kg/day; 1.8 mg/mL) and modGinA (27 mg/kg/day, 4.8 mg/mL) or vehicle (high oleic sunflower oil) was carried out daily for 10 weeks in C57BL/6JN mice (79-80 weeks old). The serum was analyzed for circulating levels of cytokines/chemokines during treatment (9th week) and 10 days after cessation of drug administration. […] FIGS. 16A and 16B show circulating levels of IL-5 in serum during treatment (9 weeks; FIG. 16A) and after treatment (FIG. 16B) with daily oral administration of 10 mg/kg of GinA or 27 mg/kg of modGinA. IL-5 was significant in post treatment using the unadjusted Kruskal-Wallace test between the three groups (vehicle, GinA and modGinA) and unadjusted unpaired t-test between either group and vehicle and during treatment using unadjusted unpaired t-test in the modGinA treatment group.

[6] = system: circulating metabolites and lipid species in serum; assay: Chronic administration, serum metabolomic and lipid analysis; assay type: in vivo, C57BL/6J male mice; conditions: daily oral GinA 10 mg/kg or modGinA 27 mg/kg, at 9 weeks, compared to vehicle
Experimental: as §1
Additionally, modGinA administration increased circulating levels of multiple DHA- and EPA-containing lipid species, including phospholipids and cholesterol esters during treatment.

in vivo = conditions: male, C57BL/6J, mouse, po, 10 mg/kg
Experimental: Gingerenone A Quantification: The analysis of Gingerenone A, EPA and DHA was accomplished using a Phenomencx® Security Guard® C18 column (4 x3 mm ID, Phenomenex, Torrance, CA) and a Waters™ Xbridge® C18 3.5 μm column (2.1 mm×100 mm, Waters Corporation, Milford, MA). The mobile phase consisted of 5 mM ammonium formate and 0.1% formic acid as component A and acetonitrile as component B. A linear gradient was run as follows: 0 min 10% B; 1 min 10% B, 5 min 90% B; 10 min 90% B; 10.1 min 10% B at a flow rate of 0.2 mL/min, with an oven temperature at 40° C. The total run time was 15 min per sample. […] For DHA, the TIS compound parameter settings (declustering potential, collision energy and cell exit potential) for MRM was −135 V, —14 V and −13 V and for naringenin MRM was −100 V, —24 V and −10 V, and MRM2 was −100V, —33 V and −10 V. The data were acquired and analyzed using Analyst version 1.4.2 (Applied Biosystems). The relative quantitation of gingerenone A, EPA and DHA was accomplished by using the area under the curves. […] For the quantitation of gingerenone A, a seven-point calibration curve (12.5 to 0.097 ng/ml) was carried out. […]
The peak areas in circulating gingerenone A levels were measured as described above in the Methods section.

Q: Which “senolytic activity (ability to selectively decrease cell viability of senescent cells)” value [1] does the source give for `CCCCC[C@H](O)CC(=O)CCc1ccc(O)c(OC)c1` [6-gingerol] here?
A: only 6-shogaol and gingerenone A displayed senolytic activity

Q: What does the source list for `CCCCC/C=C/C(=O)CCc1ccc(O)c(OC)c1` [6-shogaol]?
A: senescent cell viability ([1]; 48 h): moderate degree of cell death; senolytic activity (ability to selectively decrease cell viability of senescent cells) [1]: displayed senolytic activity; effect on proliferating cells [2]: significant increase; changes in any of the cytokines and chemokines measured ([3]; 72.4 nM): did not induce major changes; expression of anti-apoptotic protein Bcl-XL [4]: reduced; levels of pro-apoptotic protein cleaved caspase-3 [4]: increase

Q: Which “senolytic activity (ability to selectively decrease cell viability of senescent cells)” value [1] does the source give for `CCCCCCC[C@H](O)CC(=O)CCc1ccc(O)c(OC)c1` [8-gingerol] here?
A: only 6-shogaol and gingerenone A displayed senolytic activity

Q: With `CCCCCCC/C=C/C(=O)CCc1ccc(O)c(OC)c1` [8-shogaol] as the molecule, how does the “senolytic activity (ability to selectively decrease cell viability of senescent cells)” value [1] read?
A: only 6-shogaol and gingerenone A displayed senolytic activity

Q: Which “senolytic activity (ability to selectively decrease cell viability of senescent cells)” value [1] does the source give for `CCCCCCCCC[C@H](O)CC(=O)CCc1ccc(O)c(OC)c1` [10-gingerol] here?
A: only 6-shogaol and gingerenone A displayed senolytic activity

Q: Which “senescent cell viability relative to proliferating cells” value ([1]; 20 μM, 48 h, p=0.04) does the source give for `COc1cc(CC/C=C/C(=O)CCc2ccc(O)c(OC)c2)ccc1O` [gingerenone A, Gingerenone A] here?
A: significant decrease; also recorded: significantly decreased

Q: And the “selectivity for senescent over proliferating cells” value ([1]; 48 h, 20 μM, compared to D+Q)?
A: higher selectivity

Q: What about the senescent cell viability ([1]; 48 h) of the same molecule?
A: significantly decreased

Q: What about the “senolytic activity (ability to selectively decrease cell viability of senescent cells)” value [1] of the same molecule?
A: displayed senolytic activity

Q: And the “effect on proliferating cells” value [2]?
A: did not show any significant effect

Q: And the “level of IL-1β” value ([3]; 20 μM)?
A: increased

Q: And the “level of IL-13” value ([3]; 20 μM)?
A: increased

Q: What about the “level of IL-10” value ([3]; 20 μM, multiplex ELISA (FIG. 12A)) of the same molecule?
A: increased

Q: And the “level of IL-10” value ([3]; V-Plex (FIG. 13A))?
A: unchanged

Q: What about the “level of IL-8” value ([3]; gingerenone A 20 μM, D+Q) of the same molecule?
A: increased

Q: And the “secreted level of CCL2 (MCP-1)” value ([3]; gingerenone A 20 μM, D+Q)?
A: reduced

Q: And the “secreted level of IL-6” value ([3]; gingerenone A 20 μM, D+Q)?
A: reduced

Q: And the “secreted level of IP-10” value ([3]; gingerenone A 20 μM, D+Q, V-plex)?
A: reduced

Q: What about the “expression of anti-apoptotic protein Bcl-XL” value [4] of the same molecule?
A: reduced

Q: And the “levels of pro-apoptotic protein cleaved caspase-3” value [4]?
A: increase

Q: And the “serum IL-5” value ([5]; post treatment, unadjusted unpaired t-test vs vehicle)?
A: reduced

Q: What about the “serum IL-2” value ([5]; ten days after termination) of the same molecule?
A: reduced

Q: And the “serum concentration of beta-alanine” value [6]?
A: did not increase

Q: What about the “serum concentration of choline” value [6] of the same molecule?
A: did not increase

Q: And the AUC (in vivo)?
A: 1.25 ng·h/mL

Q: With `COc1cc(CCC(C)=O)ccc1O` [zingerone] as the molecule, how does the “senolytic activity (ability to selectively decrease cell viability of senescent cells)” value [1] read?
A: only 6-shogaol and gingerenone A displayed senolytic activity
